Laboratory results reported in PubChem BioAssay (NCI).
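48-hour exposure; five concentrations; linearly interpolated endpoints. Abbreviation: GI50, concentration required for 50% inhibition of growth. TGI: concentration producing complete growth inhibition.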

Experiments:
Assay in all cases: NCI anticancer screen, dose series, 48 h
786-0 renal = tested on: 786-0 renal
A498 renal = tested on: A498 renal
A549 NSCLC = tested on: A549 NSCLC
ACHN renal = tested on: ACHN renal
BT-549 breast = tested on: BT-549 breast
CCRF-CEM leukemia = tested on: CCRF-CEM leukemia
COLO 205 colon = tested on: COLO 205 colon
DU-145 prostate = tested on: DU-145 prostate
EKVX NSCLC = tested on: EKVX NSCLC
HCC-2998 colon = tested on: HCC-2998 colon
HCT-116 colon = tested on: HCT-116 colon
HCT-15 colon = tested on: HCT-15 colon
HL-60(TB) leukemia = tested on: HL-60(TB) leukemia
HOP-62 NSCLC = tested on: HOP-62 NSCLC
HOP-92 NSCLC = tested on: HOP-92 NSCLC
HS 578T breast = tested on: HS 578T breast
HT29 colon = tested on: HT29 colon
IGROV1 ovarian = tested on: IGROV1 ovarian
K-562 leukemia = tested on: K-562 leukemia
KM12 colon = tested on: KM12 colon
LOX IMVI melanoma = tested on: LOX IMVI melanoma
M14 melanoma = tested on: M14 melanoma
MALME-3M melanoma = tested on: MALME-3M melanoma
MCF7 breast = tested on: MCF7 breast
MDA-MB-231 breast = tested on: MDA-MB-231 breast
MDA-MB-435 = tested on: MDA-MB-435
MOLT-4 leukemia = tested on: MOLT-4 leukemia
NCI-H226 lung = tested on: NCI-H226 lung
NCI-H23 lung = tested on: NCI-H23 lung
NCI-H460 lung = tested on: NCI-H460 lung
NCI-H522 lung = tested on: NCI-H522 lung
NCI/ADR-RES ovarian = tested on: NCI/ADR-RES ovarian
OVCAR-3 ovarian = tested on: OVCAR-3 ovarian
OVCAR-4 ovarian = tested on: OVCAR-4 ovarian
OVCAR-5 ovarian = tested on: OVCAR-5 ovarian
OVCAR-8 ovarian = tested on: OVCAR-8 ovarian
PC-3 prostate = tested on: PC-3 prostate
RPMI-8226 leukemia = tested on: RPMI-8226 leukemia
RXF 393 renal = tested on: RXF 393 renal
SF-268 CNS = tested on: SF-268 CNS
SF-295 CNS = tested on: SF-295 CNS
SF-539 CNS = tested on: SF-539 CNS
SK-MEL-2 melanoma = tested on: SK-MEL-2 melanoma
SK-MEL-28 melanoma = tested on: SK-MEL-28 melanoma
SK-MEL-5 melanoma = tested on: SK-MEL-5 melanoma
SK-OV-3 ovarian = tested on: SK-OV-3 ovarian
SN12C renal = tested on: SN12C renal
SNB-19 CNS = tested on: SNB-19 CNS
SNB-75 CNS = tested on: SNB-75 CNS
SR leukemia = tested on: SR leukemia
SW-620 colon = tested on: SW-620 colon
T-47D breast = tested on: T-47D breast
TK-10 renal = tested on: TK-10 renal
U251 CNS = tested on: U251 CNS
UACC-257 melanoma = tested on: UACC-257 melanoma
UACC-62 melanoma = tested on: UACC-62 melanoma
UO-31 renal = tested on: UO-31 renal

CCCCCCCCCCCCCCCC(=O)Nc1ccn([C@@H]2O[C@H](CO)[C@@H](O)[C@@H]2C#N)c(=O)n1
GI50 (786-0 renal): 10.1 µM | TGI (786-0 renal): > 100 µM | GI50 (A498 renal): > 82 µM | TGI (A498 renal): > 100 µM | GI50 (A549 NSCLC): 11.7 µM | TGI (A549 NSCLC): 30.3 µM | GI50 (ACHN renal): 8.76 µM | TGI (ACHN renal): > 100 µM | GI50 (BT-549 breast): 34.9 µM | TGI (BT-549 breast): > 100 µM | TGI (CCRF-CEM leukemia): > 100 µM | GI50 (COLO 205 colon): 17.6 µM | TGI (COLO 205 colon): > 100 µM | GI50 (DU-145 prostate): 9.03 µM | TGI (DU-145 prostate): > 100 µM | GI50 (EKVX NSCLC): > 52.7 µM | TGI (EKVX NSCLC): > 100 µM | GI50 (HCC-2998 colon): 14.5 µM | TGI (HCC-2998 colon): > 100 µM | GI50 (HCT-116 colon): 4.77 µM | TGI (HCT-116 colon): > 80.6 µM | GI50 (HCT-15 colon): 50.8 µM | TGI (HCT-15 colon): > 100 µM | GI50 (HL-60(TB) leukemia): 21.1 µM | TGI (HL-60(TB) leukemia): > 100 µM | GI50 (HOP-62 NSCLC): 20.5 µM | TGI (HOP-62 NSCLC): > 100 µM | GI50 (HOP-92 NSCLC): 5.52 µM | TGI (HOP-92 NSCLC): > 100 µM | GI50 (HS 578T breast): > 100 µM | TGI (HS 578T breast): > 100 µM | GI50 (HT29 colon): 35.8 µM | TGI (HT29 colon): > 100 µM | GI50 (IGROV1 ovarian): 33.9 µM | TGI (IGROV1 ovarian): > 100 µM | GI50 (K-562 leukemia): 14.6 µM | TGI (K-562 leukemia): > 52.4 µM | GI50 (KM12 colon): 33.7 µM | TGI (KM12 colon): > 100 µM | GI50 (LOX IMVI melanoma): 10.2 µM | TGI (LOX IMVI melanoma): 37.9 µM | GI50 (M14 melanoma): 11.8 µM | TGI (M14 melanoma): > 83.6 µM | GI50 (MALME-3M melanoma): 17.3 µM | TGI (MALME-3M melanoma): 60.4 µM | GI50 (MCF7 breast): 3.29 µM | TGI (MCF7 breast): 30 µM | GI50 (MDA-MB-231 breast): 25.9 µM | TGI (MDA-MB-231 breast): > 96.4 µM | GI50 (MDA-MB-435): 39.5 µM | TGI (MDA-MB-435): > 100 µM | TGI (MOLT-4 leukemia): 26.2 µM | GI50 (NCI-H226 lung): 30.7 µM | TGI (NCI-H226 lung): > 100 µM | GI50 (NCI-H23 lung): 12 µM | TGI (NCI-H23 lung): > 84.5 µM | GI50 (NCI-H460 lung): 2.38 µM | TGI (NCI-H460 lung): 24.5 µM | GI50 (NCI-H522 lung): 13.1 µM | TGI (NCI-H522 lung): 33.3 µM | GI50 (NCI/ADR-RES ovarian): 18.4 µM | TGI (NCI/ADR-RES ovarian): > 100 µM | GI50 (OVCAR-3 ovarian): > 100 µM | TGI (OVCAR-3 ovarian): > 100 µM | GI50 (OVCAR-4 ovarian): 36.4 µM | TGI (OVCAR-4 ovarian): > 100 µM | GI50 (OVCAR-5 ovarian): 51.6 µM | TGI (OVCAR-5 ovarian): > 100 µM | GI50 (OVCAR-8 ovarian): 15.4 µM | TGI (OVCAR-8 ovarian): > 100 µM | GI50 (PC-3 prostate): 35.9 µM | TGI (PC-3 prostate): > 100 µM | GI50 (RPMI-8226 leukemia): 49.8 µM | TGI (RPMI-8226 leukemia): > 100 µM | GI50 (RXF 393 renal): > 77.9 µM | TGI (RXF 393 renal): > 100 µM | GI50 (SF-268 CNS): 30.4 µM | TGI (SF-268 CNS): > 100 µM | GI50 (SF-295 CNS): 21.5 µM | TGI (SF-295 CNS): > 100 µM | GI50 (SF-539 CNS): > 100 µM | TGI (SF-539 CNS): > 100 µM | GI50 (SK-MEL-2 melanoma): 42.3 µM | TGI (SK-MEL-2 melanoma): > 100 µM | GI50 (SK-MEL-28 melanoma): 33.1 µM | TGI (SK-MEL-28 melanoma): > 100 µM | GI50 (SK-MEL-5 melanoma): 15.2 µM | TGI (SK-MEL-5 melanoma): 28.8 µM | GI50 (SK-OV-3 ovarian): 45.6 µM | TGI (SK-OV-3 ovarian): > 100 µM | GI50 (SN12C renal): 29.7 µM | TGI (SN12C renal): > 100 µM | GI50 (SNB-19 CNS): 6.02 µM | TGI (SNB-19 CNS): > 100 µM | GI50 (SNB-75 CNS): > 58.6 µM | TGI (SNB-75 CNS): > 100 µM | GI50 (SR leukemia): 8.01 µM | TGI (SR leukemia): 98.1 µM | GI50 (SW-620 colon): 26.7 µM | TGI (SW-620 colon): > 100 µM | GI50 (T-47D breast): 33.2 µM | TGI (T-47D breast): > 88.7 µM | GI50 (TK-10 renal): > 100 µM | TGI (TK-10 renal): > 100 µM | GI50 (U251 CNS): 20.8 µM | TGI (U251 CNS): > 100 µM | GI50 (UACC-257 melanoma): 46.3 µM | TGI (UACC-257 melanoma): > 100 µM | GI50 (UACC-62 melanoma): 17.2 µM | TGI (UACC-62 melanoma): > 100 µM | GI50 (UO-31 renal): 14.5 µM | TGI (UO-31 renal): > 100 µM
